Values after ≈ are worked out from the molar mass of the structure shown.
Legend:
Assay type in all cases: functional
Bacillus subtilis = assay: Antimicrobial activity against Bacillus subtilis CGMCC 1.1470 assessed as complete prevention of visible growth after incubation at 37 degC for 18 to 20 hrs
Staphylococcus aureus [1] = assay: Antimicrobial activity against methicillin-resistant Staphylococcus aureus ATCC 43300 assessed as complete prevention of visible growth after incubation at 37 degC for 18 to 20 hrs
Staphylococcus aureus [2] = assay: Antimicrobial activity against ampicillin-resistant Staphylococcus aureus ATCC 29213 assessed as complete prevention of visible growth after incubation at 37 degC for 18 to 20 hrs
Escherichia coli = assay: Antimicrobial activity against Escherichia coli ATCC 35218 assessed as complete prevention of visible growth after incubation at 37 degC for 18 to 20 hrs
Proteus vulgaris = assay: Antimicrobial activity against Proteus vulgaris CMCC 49027 assessed as complete prevention of visible growth after incubation at 37 degC for 18 to 20 hrs
[3] = tested on: Staphylococcus epidermidis; assay: Antimicrobial activity against Staphylococcus epidermidis CMCC 26069 assessed as complete prevention of visible growth after incubation at 37 degC for 18 to 20 hrs
Staphylococcus aureus [4] = assay: Antimicrobial activity against Staphylococcus aureus ATCC 25923 assessed as complete prevention of visible growth after incubation at 37 degC for 18 to 20 hrs
Enterococcus faecalis = assay: Antimicrobial activity against Enterococcus faecalis ATCC 29212 assessed as complete prevention of visible growth after incubation at 37 degC for 18 to 20 hrs

Row | Structure (SMILES) | MIC (Bacillus subtilis) [µg/mL] | MIC (Staphylococcus aureus [1]) [µg/mL] | MIC (Staphylococcus aureus [2]) [µg/mL] | MIC (Escherichia coli) [µg/mL] | MIC (Proteus vulgaris) [µg/mL] | MIC [3] [µg/mL] | MIC (Staphylococcus aureus [4]) [µg/mL] | MIC (Enterococcus faecalis) [µg/mL]
1 | COc1ccc2c(ccc3c(-c4cc5c(cc4OC)-c4c(cc(O)cc4OC)CC5)c(O)cc(OC)c32)c1 | > 128 | > 128 | > 128 | > 128 | > 128 | > 128 | > 128 | > 128
2 | COc1cc(O)c2c(c1)CCc1cc(O)c(-c3c(O)cc(OC)c4c3ccc3cc(OC)ccc34)cc1-2 | 16 (≈ 32.4 µM) | 8 (≈ 16.2 µM) | 8 (≈ 16.2 µM) | > 128 | > 128 | 8 (≈ 16.2 µM) | 8 (≈ 16.2 µM) | 64 (≈ 129 µM)
3 | COc1ccc2c(ccc3c(-c4c(O)cc(OC)c5c4CCc4cc(O)ccc4-5)c(O)cc(OC)c32)c1 | 4 (≈ 8.09 µM) | 4 (≈ 8.09 µM) | 2 (≈ 4.04 µM) | > 128 | > 128 | 4 (≈ 8.09 µM) | 4 (≈ 8.09 µM) | 4 (≈ 8.09 µM)
4 | COc1c(O)ccc2c1ccc1c(-c3c(O)cc(OC)c4c3ccc3c(OC)c(O)ccc34)c(O)cc(OC)c12 | 8 (≈ 14.9 µM) | 16 (≈ 29.7 µM) | 8 (≈ 14.9 µM) | > 128 | > 128 | 8 (≈ 14.9 µM) | 16 (≈ 29.7 µM) | 64 (≈ 119 µM)
5 | CC1(C)S[C@@H]2[C@H](NC(=O)[C@H](N)c3ccccc3)C(=O)N2[C@H]1C(=O)O [AMPICILLIN] | > 8 | > 8 | 8 (≈ 22.9 µM) | > 8 | > 8 | 8 (≈ 22.9 µM) | 0.125 (≈ 0.358 µM) | 4 (≈ 11.4 µM)
6 | COc1cc(O)c(-c2c(O)cc(OC)c3c2ccc2cc(O)ccc23)c2ccc3cc(O)ccc3c12 [CIRRHOPETALANTHIN] | 8 (≈ 16.7 µM) | 16 (≈ 33.4 µM) | 16 (≈ 33.4 µM) | > 128 | > 128 | 16 (≈ 33.4 µM) | 32 (≈ 66.9 µM) | 16 (≈ 33.4 µM)

From ChEMBL document CHEMBL3580534, “Antibacterial Biphenanthrenes from the Fibrous Roots of Bletilla striata” (2015)
